The results in this text go back to patent US4334067A, “Flavan compounds and acid addition salts thereof” (Maruko Seiyaku Co., Ltd., priority 1979, dated 1982).

For data set [1], the system named is ddY male mice. Briefly: Anti-convulsive activity (pulse from corneal electrode). It is filed as in vivo. To be noted: 60 mg/kg intraperitoneally, 15 minutes before pulse; compared with Phenytoin 40 mg/kg. As to the method:
The test compound was administered intraperitoneally to ddY male mice (weighing 20 to 25 g, 7 mice per group), and, 15 minutes thereafter, pulse (A.C. 100 V, 200 msec.) was applied to the mice from a corneal electrode, and the duration time of tonic flexor, tonic extensor and clonic convulsion were determined.

Data set [2] can be described thus: Acute toxicity. Particulars: mouse, in vivo, 7 days observation. The method, then:
[…] After observing general conditions of mice for 7 days after administration, 50% lethal dose [LD50 (mg/kg)] was determined.

For data set [3], the system named is Wistar male rats. Kind of data set: Anti-arrhythmic activity (aconitine-induced arrhythmia). It is filed as in vivo. To be noted: 10 mg/kg, 10 minutes before aconitine; compared with Ajmaline 5 mg/kg. The method, then: An aqueous solution of aconitine was injected continuously at a rate of 3 μg/kg/minute to Wistar male rats (weighing 220 to 270 g, five rats per group) through a polyethylene cannula inserted into the femoral vein. The test compounds were administered 10 minutes before the administration of aconitine.
The cardiac arrhythmia was determined by electrocardiographic recording of II lead on the limbs and the generation of descending large QRS complex was taken as the ventricular extrasystole and the observation was conducted until ventricular fibrillation was produced.

For data set [4], the system named is Wistar male rats. Kind of data set: Diuretic activity. It is filed as in vivo. To be noted: oral, urine collected 5 hours, control = 1.0. As to the method:
Wistar male rats (weighing 200 to 250 g, 9 rats per group) fasted 18 hours before the test but freely received drinking water were used. A 0.9% (by weight) physiological saline solution containing the test compound was orally charged through a stomach tube in an amount of 3 ml/100 g of body weight. Immediately thereafter, the rats were placed in a stainless steel cage and the urine was collected during a period of 5 hours after the administration and the urine volume was measured.

Data set [5] has as its system BALB/C type male mice. Briefly: Anti-ulcerous activity (restraint water-immersion stress ulcer). It is filed as in vivo. Particulars: for Ulcerous Index: control 54.4 mm; for % Inhibition: inhibition of stress ulcer versus control. The method, then: BALB/C type male mice weighing about 20 g which fasted for 17 hours before the test were placed in a poly(vinyl chloride) cyclindrical restraint cage having an inside diameter of 35 mm and the mice were immersed in water at 15° C. to the level of xiphisternum of mice for a period of 5 hours. Immediately thereafter, stomach was extracted and 1 ml of 0.5% (by weight) formalin solution was injected into the stomach. After fixing for about 10 minutes, the stomach was incised along the greater curvature thereof and the ulcer generated was obserbed by a stereoscopic microcope.

Structures can show the parent of a compound that is named as a salt.

A word on the LD50: it is the dose expected to kill half of the subjects tested. Read a low LD50 as greater toxicity. With `CCN(CC)CCN[C@H]1c2ccccc2O[C@H](c2ccc(OC)cc2)[C@@H]1O` (relative stereo) [Compound A, 2,3-cis-3,4-trans-4-(2-diethylaminoethylamino)-4'-methoxyflavan-3-ol dimaleate], the anti-convulsive activity entry in data set [1] is listed as “comparable to that of Phenytoin”. For the same compound, the LD50 at 168 h in data set [2] (iv) is 1000 mg/kg; in data set [2] (po), 2000 mg/kg.
On to `COc1ccc([C@H]2Oc3ccccc3[C@H](N3CCN(C)CC3)[C@H]2O)cc1` (relative stereo) [Compound B, 2,3-cis-3,4-trans-4'-methoxy-4-(4-methylpiperazin-1-yl)flavan-3-ol dimaleate], for which the “activity for prolonging the time required for producing the cardiac arrhythmia” value in data set [3] is recorded as “superior to Ajmaline”. Besides, the anti-convulsive activity result in data set [1] is given as “comparable to that of Phenytoin”. For the same compound, the 50% lethal dose (LD50) at 168 h in data set [2] (iv) came to 1000 mg/kg; in data set [2] (po), 2000 mg/kg.
In the case of `COc1ccc([C@H]2Oc3ccccc3[C@H](NCCCN3CCOCC3)[C@H]2O)cc1` (relative stereo) [Compound C, 2,3-cis-3,4-trans-4'-methoxy-4-(3-morpholinopropylamino)flavan-3-ol dimaleate], the anti-convulsive activity entry in data set [1] is recorded as “comparable to that of Phenytoin”. Also, the “Volume Ratio of Urine” value in data set [4] (100 mg/kg) was found to be 2.1. Also, the LD50 at 168 h in data set [2] (iv) turned out to be 500 mg/kg; in data set [2] (po) it was 1500 mg/kg.
On to `COc1ccc([C@H]2Oc3ccccc3[C@H](NCCCN(C)C)[C@H]2O)cc1` (relative stereo) [Compound D, 2,3-cis-3,4-trans-4-(3-dimethylaminopropylamino)-4'-methoxyflavan-3-ol], for which the LD50 at 168 h was found to be 1000 mg/kg in data set [2] (iv) and 1500 mg/kg in data set [2] (po).
Consider `O[C@H]1[C@H](c2ccccc2)Oc2ccccc2[C@@H]1N1CCCCC1` (relative stereo) [Compound E, 2,3-trans-3,4-trans-4-piperidinoflavan-3-ol maleate], for which, in data set [1], the anti-convulsive activity result is recorded as “comparable to that of Phenytoin”. Also, the “Volume Ratio of Urine” value in data set [4] (100 mg/kg) stood at 2.8. For the same compound, the 50% lethal dose (LD50) at 168 h in data set [2] (iv) was 1000 mg/kg; in data set [2] (po) it was 1500 mg/kg.
Take `CN1CCN([C@H]2c3ccccc3O[C@@H](c3ccccc3)[C@@H]2O)CC1` (relative stereo) [Compound F, 2,3-trans-3,4-trans-4-(4-methylpiperazin-1-yl)flavan-3-ol dimaleate]: the “Volume Ratio of Urine” value in data set [4] (100 mg/kg) stood at 2.2. For the same compound, the 50% lethal dose (LD50) at 168 h in data set [2] (iv) and in data set [2] (po) was 300 mg/kg in each case.
As a reminder, the % Inhibition is how much of the control response was suppressed. Read a high % Inhibition as a strong effect. As for `CC(=O)O[C@H]1[C@H](c2ccccc2)Oc2ccccc2[C@@H]1N1CCN(C)CC1` (relative stereo) [Compound G, 2,3-trans-3,4-trans-3-acetoxy-4-(4-methylpiperazin-1-yl)flavan dimaleate], in data set [4] (50 mg/kg), the “Volume Ratio of Urine” value worked out at 3.0. For the same compound, the “Ulcerous Index” value in data set [5] (10 mg/kg) is on record as 37.6 mm; in data set [5] (50 mg/kg), 14.3 mm. Further, the “% Inhibition” value amounted to 30.8% in data set [5] (10 mg/kg) and 73.7% in data set [5] (50 mg/kg). The LD50 at 168 h worked out at 300 mg/kg in data set [2] (iv) and 1000 mg/kg in data set [2] (po).
On to `CN(C)CCN[C@H]1c2ccccc2O[C@@H](c2ccccc2)[C@@H]1O` (relative stereo) [Compound H, 2,3-trans-3,4-trans-4-(2-dimethylaminoethylamino)-flavan-3-ol dimaleate], for which the “activity for prolonging the time required for producing the cardiac arrhythmia” value in data set [3] is recorded as “superior to Ajmaline”. Besides, the LD50 at 168 h in data set [2] (iv) and in data set [2] (po) was 300 mg/kg each time.
Consider `CN1[C@@H]2CC[C@H]1C[C@@H](OC(=O)C(CO)c1ccccc1)C2` (some centres unmarked) [Atropine Sulfate, reference compound], for which, in data set [5] (10 mg/kg), the “Ulcerous Index” value was 30.7 mm and the “% Inhibition” value is given as 43.8%.
